Experimental data published in patent US8835422B2, “Substituted imidazoheterocycle derivatives” (Cara Therapeutics, Inc., priority 2008, dated 2014).

Assays:
[1] = system: acetic acid-induced writhing; assay: Inhibition of acetic acid-induced writhing in mice; type: in vivo, Male ICR mice; conditions: dose of 10 mg/kg, subcutaneous, 30 min before acetic acid; writhes over 15 min
Description: 12: 525-562; Ramabadran and Bansinath (1986) Pharm. Res. 3: 263-270]. Intraperitoneal administration of dilute acetic acid solution causes a writhing behavior in mice. A writhe is defined as a contraction of the abdominal muscles accompanied by an extension of the forelimbs and elongation of the body. The number of writhes observed in the presence and absence of test compounds is counted to determine the analgesic activity of the compounds.
Male ICR mice, 20-40 grams in weight, were weighed and placed in individual observation chambers (usually a 4000 ml beaker) with a fine layer of rodent bedding at the bottom. To determine the activity and potency of test compounds, different doses of the compound solution or vehicle were injected subcutaneously in the back of the neck 30 minutes prior to administration of acetic acid solution. After administration of the compound or vehicle control, mice were returned to their individual observation chambers awaiting the intraperitoneal administration of acetic acid solution. Thirty minutes later, 10 ml/kg of a 0.6% (v/v) acetic acid solution was then injected into the right lower quadrant of the abdomen. Immediately after the injection, the mouse was returned to its observation chamber and the recording of the number of writhes is begun immediately. The number of writhes was counted over a 15-min period starting from the time of acetic acid injection. Raw data were analyzed using a one-way ANOVA followed by Dunnett's post-tests.
For dose-response analysis, raw data were converted to % maximum possible effect (% MPE) using the formula: % MPE=((Wc−Wv)/(0−Wv))×100, where Wc is the number of writhes in compound-treated mice and Wv is the mean number of writhes in vehicle-treated mice. The dose which elicited 50% attenuation of hypersensitivity (ED50) was determined using linear regression analysis. (Tallarida & Murray, 1987).

[2] = target: human CB1 receptor (hCB1) (Homo sapiens, UniProt P21554); assay: cAMP assay (LANCE TR-FRET) in CHO-K1 cells stably expressing hCB1; type: cell-based
Description: (§1) The ability of compounds to act as agonists or inverse agonists at human CB2 and CB1 receptors (hCB2, hCB1, respectively) and at the rat CB2 receptor (rCB2) was determined by measuring changes in intracellular cAMP levels. Chinese Hamster Ovary (CHO-K1) cell lines stably expressing hCB2 (Genebank: X74328) or hCB1 (Genebank: X54937) were purchased from Euroscreen (Gosselies, Belgium). The rat CB2 receptor was expressed from genomic DNA (provided by M. Abood, California Pacific Medical Center) in CHO-K1 cells from expression plasmid vector, pcDNA3.1.
(§2) Receptor mediated responses were determined by measuring changes in intracellular cAMP using LANCE cAMP detection kit (cat #AD0264, Perkin Elmer, Wellesley, Mass.) based on time-resolved fluorescence resonance energy transfer (TR-FRET).
(§3) On the day of the experiment, cells were spun at low speed for 5 min at room temperature. […] Cell clumps were removed by filtering through cell strainer 40 μm (BD Falcon, Discovery Labware, Bedford, Mass.) and diluted to 2×10^5 cells/mL. Antibody supplied with the LANCE cAMP immunoassay kit was then added according to the manufacturer's instructions. An aliquot of cells was taken for un-induced controls. […] Cells were then incubated for 30 min at room temperature prior to adding to Proxiplates containing test compounds (final DMSO concentration was less than 0.5%) with a Multidrop bulk dispenser, followed by a sixty minute incubation at room temperature. The response was stopped by addition of the detection mix supplied with the LANCE kit. The reagents were allowed to equilibrate for three hours prior to reading on an Envision multi-mode detector (Perkin-Elmer). TR-FRET was measured using a 330-380 nm excitation filter, a 665 nm emission filter, dichroic mirror 380 nm and Z=1 mm. Cyclic AMP concentrations in each well were back-calculated from a cAMP standard curve run concurrently during each assay. Each plate contained 16 wells of forskolin stimulated cells and 16 wells of forskolin plus CP55,940-treated cells. […] Concentrations of cAMP were expressed as a percent of the difference of these two groups of wells.

[3] = target: T1, human CB2 receptor (hCB2) (Homo sapiens, UniProt P34972); assay: cAMP assay (LANCE TR-FRET) in CHO-K1 cells stably expressing hCB2; type: cell-based
T1 construct: host or cells: CHO-K1
Description: as §1, §2, §3

Sequence of human CB1 receptor (hCB1) (P21554 whole entry): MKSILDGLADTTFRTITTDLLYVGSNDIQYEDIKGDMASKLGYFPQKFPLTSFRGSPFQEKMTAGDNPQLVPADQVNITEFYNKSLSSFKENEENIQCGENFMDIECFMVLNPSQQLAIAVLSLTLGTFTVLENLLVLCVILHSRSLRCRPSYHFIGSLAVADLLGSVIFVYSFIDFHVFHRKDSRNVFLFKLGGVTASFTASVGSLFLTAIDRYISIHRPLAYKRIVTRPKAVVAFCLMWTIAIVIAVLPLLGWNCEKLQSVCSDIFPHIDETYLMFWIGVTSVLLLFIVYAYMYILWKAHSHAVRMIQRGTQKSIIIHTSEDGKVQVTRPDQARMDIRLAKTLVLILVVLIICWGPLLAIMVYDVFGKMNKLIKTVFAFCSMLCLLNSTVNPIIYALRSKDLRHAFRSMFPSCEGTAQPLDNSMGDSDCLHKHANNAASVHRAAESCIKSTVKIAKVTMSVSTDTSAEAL
T1 sequence (P34972 whole entry): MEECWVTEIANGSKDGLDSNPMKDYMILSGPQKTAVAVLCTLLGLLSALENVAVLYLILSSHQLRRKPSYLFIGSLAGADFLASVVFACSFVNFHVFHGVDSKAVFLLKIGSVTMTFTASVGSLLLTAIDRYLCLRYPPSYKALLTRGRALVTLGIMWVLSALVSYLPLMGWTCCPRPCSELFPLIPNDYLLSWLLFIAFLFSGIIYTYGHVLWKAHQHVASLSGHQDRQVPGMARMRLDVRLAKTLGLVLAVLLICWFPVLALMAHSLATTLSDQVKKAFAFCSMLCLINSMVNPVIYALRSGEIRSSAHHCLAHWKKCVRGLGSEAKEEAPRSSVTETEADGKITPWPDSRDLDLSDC

For CNC(=O)[C@@H](NC(=O)c1nc(-c2cc(F)ccc2F)n2c1CCCCC2)C(C)(C)C [Compound 1-3, (S)-3-(2,5-difluorophenyl)-N-(3,3-dimethyl-1-(methyl-amino)-1-oxobutan-2-yl)-6,7,8,9-tetrahydro-5H-imidazo[1,5-a]azepine-1-carboxamide], the “% maximum possible effect (% MPE), writhing” value [1] was “greater than fifty”, the EC50 [2] was 0.1 to 10 nM and the EC50 [3] was 0.1 to 10 nM.
